In US10662193B2, “Carbazole and carboline compounds for use in the diagnosis, treatment, alleviation or prevention of disorders associated with amyloid or amyloid-like proteins” (AC IMMUNE SA, priority 2014, dated 2020):

Key:
[1] = test system: Aβ plaques on AD brain section; assay: Assay 1: displacement of Compound B on human AD brain sections (fluorescence); assay type: binding
Procedure: Direct Binding of Compounds of this Invention to Human Alzheimer's Disease Brain Sections and/or Displacement of RefA and Compound B Frozen sections with a thickness of […] from the amygdala of donors diagnosed with Braak stage V-VI Alzheimer's Disease (Braak, H.; Braak, E. Acta Neuropathol., 1991, 82, 239-259), were purchased from a commercial provider (Tissue Solutions) and kept at -80° C. until use. Displacement of RefA and Compound B Brain sections were mainly treated as described above. Test compounds were, however, incubated on the section at 250 μM in 50% ethanol for 20 min at room temperature, and then directly incubated with the fluorescent reference compounds RefA and Compound B, each at 1 μM in 50% ethanol for 20 min at room temperature. RefA and Compound B stainings were visualized using the 470 nm and 365 nm excitation filters, respectively. Images were acquired, and tangles and plaques quantified using the NIS-Element software. Only those compounds not directly staining tangles or plaques at the same wavelengths as RefA and Compound B were tested in the displacement assay. Structure of Compound B (prepared by a similar procedure described for […] in WO2010/011964): […]

[2] = molecular target: T1, in vitro aggregated Abeta1-42 (Homo sapiens, UniProt P05067); assay: Assay 2 (filter trap): [3H]RefA competition and Ki on aggregated Abeta1-42 (selectivity tau versus Abeta); assay type: binding; details: Table 24; fold increase of the Ki on aggregated Abeta1-42 versus PHF
T1 construct: Abeta1-42 (Bachem, Switzerland) peptide films were re-suspended in 1% DMSO; purchased Bachem, Switzerland
Procedure: Recombinant human full-length Tau441 (flTau) was expressed in bacteria and purified in the laboratory of Professor Hilal Lashuel (EPFL, Switzerland). A solution of 8 μM (400 μg/mL) flTau in PBS, 10 μM DTT and 5 μM heparin (all from Sigma-Aldrich) was gently mixed (cradled) for 3 days at 37° C. Cradled flTau aggregates were used at a final concentration of 20 μg/mL in all binding assays. Abeta1-42 (Bachem, Switzerland) peptide films were re-suspended in 1% DMSO and diluted in PBS to a 33 μM (150 μg/mL) suspension that was sonicated until complete dissolution. Aggregation process was done at 37° C. for 24 hours. Aggregated Abeta1-42 was used at a concentration of 20 μg/mL in all binding assays.
AD brain-enriched PHF diluted 1/80 were incubated in the presence of [^3H]RefA at 10 nM and the example compounds of this invention at 2.5 μM (250× excess), for 45 minutes at 37° C. Samples were then analyzed by on GF/B filter plates as described above (in the section “[^3H]RefA radio-binding assay and determination of the dissociation constant (Kd)). Non-specific signal was determined again with an excess of un-labeled RefA and specific binding calculated by subtracting the non-specific signal from the total signal. […]

T1 sequence (P05067 672-713 limits assumed): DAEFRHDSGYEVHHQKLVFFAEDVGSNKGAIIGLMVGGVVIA

Structure (SMILES) | Competition on AD brain section Aβ plaques (1 μM Compound B vs 250 μM compound) [1] | Fold increase on Abeta1-42 vs PHF [2]
Cn1c2ccncc2c2ccc(Nc3ccc(F)c(F)c3)nc21 [Example 2] | 0% | –
Cn1c2ccncc2c2ccc(Nc3cccc(OCCF)c3)nc21 [Example 8] | 6% | 0.5
Cn1c2ccncc2c2ccc(Nc3ccc(OC(F)F)cc3)nc21 [Example 9] | 0% | 200
